Laboratory results reported in article PMC12040169 (PLOS Biology, 2025).

Test: in vitro
Details: human, hela cells, % viability

Structure (SMILES): CCOc1ccccc1NC(=O)CCCC(=O)O [CBK275986]
- viability at 28.5 h, 10 µM: 98.9%

Structure (SMILES): O=C(O)CCSC1CC(=O)N(c2ccc(F)cc2)C1=O (stereo not drawn) [CBK276120]
- viability at 28.5 h, 10 µM: 89.9%

Structure (SMILES): CSCCC(NC(=O)c1ccc(C#CC(C)(C)O)cc1)C(=O)O (stereo not drawn) [CBK276698]
- viability at 28.5 h, 10 µM: 93.9%

Structure (SMILES): COCCCNCCn1cnc2c(N)ncnc21 [CBK277059]
- viability at 28.5 h, 10 µM: 88.9%

Structure (SMILES): CC1CCC2(CC1)N=C(N)Nc1nc3ccccc3n12 (stereo not drawn) [CBK277657]
- viability at 28.5 h, 10 µM: 88.4%

Structure (SMILES): Fc1ccccc1COc1cccc(CNCCN2CCOCC2)c1 [CBK278148C]
- viability at 28.5 h, 10 µM: 102%

Structure (SMILES): c1ccc2c(CNCCN3CCOCC3)cccc2c1 [CBK278156C]
- viability at 28.5 h, 10 µM: 90.9%

Structure (SMILES): O=C(O)CCNC1=Nc2ccccc2CCC1 [CBK278160]
- viability at 28.5 h, 10 µM: 101%

Structure (SMILES): CN1C2CCC1CC(OC(=O)CNC1CCCCC1)C2 (stereo not drawn) [CBK278161C]
- viability at 28.5 h, 10 µM: 93.6%

Structure (SMILES): COc1c(Cl)cc(Cl)cc1CNCCCN1CCOCC1 [CBK278165C]
- viability at 28.5 h, 10 µM: 88.8%

Structure (SMILES): O=C1NC(=O)N(c2ccc(Br)cc2)C(=O)/C1=C/c1ccc(O)c(O)c1 [CBK278167]
- viability at 28.5 h, 10 µM (bulk resorufin, single well): 104%

Structure (SMILES): O=C1C=CC2=C3Oc4c(ccc5cc(O)ccc45)C(c4ccccc4C(=O)O)C3C=CC2=C1 (stereo not drawn) [CBK278169N]
- viability at 28.5 h, 10 µM: 82.8%

Structure (SMILES): CCc1nnc(N/N=C/c2ccc(OCc3ccc(F)cc3Cl)c(OC)c2)n1N [CBK278173C]
- viability at 28.5 h, 10 µM: 87.1%

Structure (SMILES): CN(C)CCOC(=O)C1CCCCCN1C (stereo not drawn) [CBK278175G]
- viability at 28.5 h, 10 µM: 97.8%

Structure (SMILES): CC(O)c1ccc(-c2ccc(CNCCCN3CCOCC3)o2)cc1 (stereo not drawn) [CBK278178C]
- viability at 28.5 h, 10 µM: 95.4%

Structure (SMILES): COc1ccc(CNCCN2CCOCC2)c(OC)c1 [CBK278180C]
- viability at 28.5 h, 10 µM: 90.1%

Structure (SMILES): O=C1NC(=O)N(Cc2ccccc2)C(=O)/C1=C/c1ccc(O)c(O)c1 [CBK278181]
- viability at 28.5 h, 10 µM (bulk resorufin, single well): 117%

Structure (SMILES): CCOc1c(CNCCN2CCOCC2)cccc1OC [CBK278182C]
- viability at 28.5 h, 10 µM: 103%

Structure (SMILES): COc1cccc(CNCCN2CCOCC2)c1O [CBK278183C]
- viability at 28.5 h, 10 µM: 90.2%

Structure (SMILES): O=C1C2C3C=CC(C3)C2C(=O)N1CCN1CCNCC1 (stereo not drawn) [CBK278185C]
- viability at 28.5 h, 10 µM: 92.3%

Structure (SMILES): CN(C)CCNc1cc(-c2ccc3ccccc3c2)nc2ccccc12 [CBK278186B]
- viability at 28.5 h, 10 µM: 67.9%

Structure (SMILES): Cn1cccc1CNCCN1CCOCC1 [CBK278187C]
- viability at 28.5 h, 10 µM: 89.2%

Structure (SMILES): Clc1ccc(Cl)c(-c2ccc(CNCCCN3CCOCC3)o2)c1 [CBK278190C]
- viability at 28.5 h, 10 µM: 89.3%

Structure (SMILES): CN1CCN(CC(O)COc2ccccc2)CC1 (stereo not drawn) [CBK278191G]
- viability at 28.5 h, 10 µM: 83.8%

Structure (SMILES): Fc1ccc(CNCCN2CCOCC2)cc1 [CBK278192C]
- viability at 28.5 h, 10 µM: 105%

Structure (SMILES): CCOC(=O)Nc1ccc2c(c1)N(C(=O)CCN(C)C)c1ccccc1CC2 [CBK278193C]
- viability at 28.5 h, 10 µM: 89.9%

Structure (SMILES): C(=C\c1ccccc1)/CNCCCN1CCOCC1 [CBK278195C]
- viability at 28.5 h, 10 µM: 105%

Structure (SMILES): O=S(=O)(O)c1ccc(N/N=C/c2cccc(/C=N/Nc3ccc(S(=O)(=O)O)cc3)c2)cc1 [CBK278204N]
- viability at 28.5 h, 10 µM: 89%

Structure (SMILES): Cc1cccc(C)c1OCCOCC(O)CN1CCN(C)CC1 (stereo not drawn) [CBK278206C]
- viability at 28.5 h, 10 µM: 90.4%

Structure (SMILES): COc1ccc(Br)cc1CNCCCN1CCOCC1 [CBK278208C]
- viability at 28.5 h, 10 µM: 102%

Structure (SMILES): C1CN=C(SCCCSC2=NCCCN2)NC1 [CBK278210B]
- viability at 28.5 h, 10 µM: 110%

Structure (SMILES): CC1CCC(C(C)C)C(OCC(O)CN2CCN(C)CC2)C1 (stereo not drawn) [CBK278213C]
- viability at 28.5 h, 10 µM: 105%

Structure (SMILES): C=CCOc1ccc(CNCCN2CCOCC2)cc1 [CBK278215C]
- viability at 28.5 h, 10 µM: 94.3%

Structure (SMILES): O=C(CCN1CCN(CCO)CC1)N1c2ccccc2Sc2ccc(C(F)(F)F)cc21 [CBK278218C]
- viability at 28.5 h, 10 µM: 96.4%

Structure (SMILES): COC(=O)Nc1ccc2c(c1)N(C(=O)CCN1CCN3CCCC3C1)c1ccccc1CC2 (stereo not drawn) [CBK278220C]
- viability at 28.5 h, 10 µM: 93.1%

Structure (SMILES): Fc1ccccc1COc1ccccc1CNCCN1CCOCC1 [CBK278222C]
- viability at 28.5 h, 10 µM: 96.4%

Structure (SMILES): Cc1ccc(COC(CN2CCCCCC2)CN2CCCCCC2)cc1 [CBK278236C]
- viability at 28.5 h, 10 µM: 100%

Structure (SMILES): CN1CCN(CCCN2C(=O)CSC2c2cccc([N+](=O)[O-])c2)CC1 (stereo not drawn) [CBK278237C]
- viability at 28.5 h, 10 µM: 99.9%

Structure (SMILES): CCOC(=O)c1c(C)nc2n(CCN3CCCCC3)c3ccccc3n12 [CBK278238C]
- viability at 28.5 h, 10 µM: 91.3%

Structure (SMILES): CCN(CC)CCn1c(=N)n(CC(=O)c2cccs2)c2ccccc21 [CBK278240B]
- viability at 28.5 h, 10 µM: 85.1%

Structure (SMILES): O=C(NCCN1CCNCC1)c1ccccn1 [CBK278241C]
- viability at 28.5 h, 10 µM: 108%

Structure (SMILES): CC(=O)c1c(-c2cccc3ccccc23)nc2n(CCN3CCCCC3)c3ccccc3n12 [CBK278243C]
- viability at 28.5 h, 10 µM: 103%

Structure (SMILES): N=c1n(CCN2CCCCC2)c2ccccc2n1CC(=O)c1cccs1 [CBK278244B]
- viability at 28.5 h, 10 µM: 85%

Structure (SMILES): OC(COCc1ccc2c(c1)OCO2)CN1CCN(Cc2ccccc2)CC1 (stereo not drawn) [CBK278249C]
- viability at 28.5 h, 10 µM: 93.5%

Structure (SMILES): CC(C)(C)c1cn2c3ccccc3nc2n1CCN1CCOCC1 [CBK278252C]
- viability at 28.5 h, 10 µM: 103%

Structure (SMILES): CN1CCN(CC(O)COCc2ccc3c(c2)OCO3)CC1 (stereo not drawn) [CBK278260C]
- viability at 28.5 h, 10 µM: 81.4%

Structure (SMILES): OCCN1CCN(CC(O)COCc2ccccc2)CC1 (stereo not drawn) [CBK278262C]
- viability at 28.5 h, 10 µM: 90.6%

Structure (SMILES): CC(C)(C)C1CCC(OCC(O)CN2CCN(CCO)CC2)CC1 (stereo not drawn) [CBK278263C]
- viability at 28.5 h, 10 µM: 89.8%

Structure (SMILES): CC(=C\C(=O)O)/C(=C/c1ccncc1)C(=O)O [CBK278265N]
- viability at 28.5 h, 10 µM: 116%

Structure (SMILES): OCCNCCNCc1ccc(-c2ccccc2)cc1 [CBK278269C]
- viability at 28.5 h, 10 µM: 115%

Structure (SMILES): CN(C)CCCn1c(NCc2ccc3c(c2)OCO3)nc2ccccc21 [CBK278273C]
- viability at 28.5 h, 10 µM: 94.4%

Structure (SMILES): Cc1nnc(N/N=C/c2cn(Cc3c(F)cccc3Cl)c3ccccc23)n1N [CBK278277C]
- viability at 28.5 h, 10 µM: 86.8%

Structure (SMILES): CCOC(=O)C1CCCN1Cc1ccccc1 (stereo not drawn) [CBK278278G]
- viability at 28.5 h, 10 µM: 95%

Structure (SMILES): CCc1nnc(N/N=C/c2cc(Cl)c(OCc3ccccc3F)c(OC)c2)n1N [CBK278282C]
- viability at 28.5 h, 10 µM: 85.4%

Structure (SMILES): CN(C)CCCNC(=O)c1ccc(/C=N/O)[n+](C)c1 [CBK278284I]
- viability at 28.5 h, 10 µM: 88.8%

Structure (SMILES): NCCc1nc2ccccc2[nH]1 [CBK278287C]
- viability at 28.5 h, 10 µM: 91.8%

Structure (SMILES): Cc1ccccc1CNCCNCCO [CBK278293C]
- viability at 28.5 h, 10 µM: 98%

Structure (SMILES): c1ccc2c(c1)N1CCCN=C1N2CCN1CCOCC1 [CBK278300C]
- viability at 28.5 h, 10 µM: 108%

Structure (SMILES): N=C(N)SCCCCSC(=N)N [CBK278304B]
- viability at 28.5 h, 10 µM: 102%

Structure (SMILES): O=C(O)C(O)C(O)C(O)CO (stereo not drawn) [CBK278306G]
- viability at 28.5 h, 10 µM: 89.3%

Structure (SMILES): O=S(=O)(O)CCCSCCCS(=O)(=O)O [CBK278307N]
- viability at 28.5 h, 10 µM: 95.4%

Structure (SMILES): COc1ccccc1CNCCCN1CCOCC1 [CBK278310C]
- viability at 28.5 h, 10 µM: 96.2%

Structure (SMILES): CC1=NN(c2ccc(S(=O)(=O)O)cc2)C(=O)/C1=C/C=C/c1c(C)nn(-c2ccc(S(=O)(=O)O)cc2)c1O [CBK278317K]
- viability at 28.5 h, 10 µM: 94.6%

Structure (SMILES): Cc1ccccc1OCC(O)CN1CCN(CCN2C(=O)c3cccc4cccc(c34)C2=O)CC1 (stereo not drawn) [CBK278321C]
- viability at 28.5 h, 10 µM: 68.9%

Structure (SMILES): CC(C)(C)OC(=O)NCC1CCC(C(=O)O)CC1 (stereo not drawn) [CBK278598]
- viability at 28.5 h, 10 µM: 94.5%

Structure (SMILES): CCOc1ncccc1C(=O)NCc1ccc(NC(N)=O)cc1 [CBK279382]
- viability at 28.5 h, 10 µM: 111%

Structure (SMILES): Cc1oc2[nH]c(CN(C)CCOc3ccc(Cl)cc3)nc(=N)c2c1C(=O)O [CBK279463]
- viability at 28.5 h, 10 µM: 102%

Structure (SMILES): O=C(O)CCCC(=O)Nc1ccccc1-c1nc2ccccc2[nH]c1=O [CBK280451]
- viability at 28.5 h, 10 µM: 85.9%

Structure (SMILES): Cc1nccn1CCCC(=O)NCC1(c2ccccc2F)CCCC1 [CBK281370]
- viability at 28.5 h, 10 µM: 109%
